US20240336657A1, “G-ALPHA-S PEPTIDE INHIBITORS AND USES THEREOF” (The Regents of the University of California, priority 2021, published 2024)
Positions of bridges follow the written chain, without caps; N, C: chain ends. Non-standard residues stand in square brackets, D forms with d. Residues, ends and D or L forms follow the SMILES beside them.

Columns and labels:
Gαi = Gαi (Homo sapiens, UniProt P63096); experiment: Nucleotide exchange step (GDP dissociation / GTPγS binding); assay type: biochemical; conditions: compared with Gαs
Sequence of Gαi (P63096 whole entry): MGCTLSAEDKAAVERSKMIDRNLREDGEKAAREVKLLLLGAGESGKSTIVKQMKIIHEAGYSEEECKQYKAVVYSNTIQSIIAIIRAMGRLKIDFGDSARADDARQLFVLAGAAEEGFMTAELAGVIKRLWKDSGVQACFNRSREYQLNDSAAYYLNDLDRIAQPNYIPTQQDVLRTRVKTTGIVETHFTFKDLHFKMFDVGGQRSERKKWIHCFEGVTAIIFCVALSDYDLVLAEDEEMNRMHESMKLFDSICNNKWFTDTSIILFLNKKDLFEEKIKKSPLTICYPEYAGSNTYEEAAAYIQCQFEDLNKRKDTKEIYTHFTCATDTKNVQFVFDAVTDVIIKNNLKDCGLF
Experimental: Gα proteins were diluted to 400 nM in the EDTA buffer (20 mM HEPES 7.5, 150 mM NaCl, 1 mM EDTA-Na 8.0, 2 mM DTT). [^3H]GDP (1 mCi/mL, 25.2 μM) was added to a final concentration of 1.2 μM, followed by cyclic peptides addition. After incubation at 20° C. for 30 minutes, the same volume of assay buffer ([…] HEPES-Na 7.5, 150 mM NaCl, 2 mM MgCl2, and 1 mM GDP) was added to initiate [^3H]GDP dissociation. At various points, […] was removed and mixed with 390 μL of ice-cold wash buffer (20 mM HEPES 7.5, 150 mM NaCl, 20 mM MgCl2). The mixture was immediately filtered through a mixed cellulose membrane (25 mm, 0.22 μm) held by a microanalysis filter holder (EMD Millipore). The membrane was washed by ice-cold wash buffer (500 μL×3), put in a 6-mL plastic vial and air-dried (room temperature 1.5 h). 5 mL of CytoScint-ES Liquid Scintillation Cocktail was added to each vial. After incubation overnight at room temperature, the vial was used for liquid scintillation counting with a LS 6500 Multi-Purpose Scintillation Counter.
Gα proteins were diluted to 10 μM with dilution buffer (20 mM HEPES 7.5, 150 mM NaCl, 1 mM MgCl2, 2 mM DTT, and 20 μM GDP) and incubated with 5× stocks of cyclic peptides at room temperature for 2 hours. GTPγS binding was initiated by mixing with the reaction buffer at room temperature (50 nM [35S]GTPγS and 100 μM GTPγS in dilution buffer) at room temperature. […]

GppNHp-bound Gαs = GppNHp-bound Gαs (Homo sapiens, UniProt P63092); experiment: Adenylyl cyclase activity assay (Gαs-mediated adenylyl cyclase activation, cAMP production, LANCE Ultra cAMP kit); assay type: biochemical; design: made in house; host or cells: Escherichia coli BL21(DE3); conditions: 6.25 μM of GN13; in the presence of Gβ1/γ2
Sequence of GppNHp-bound Gαs (P63092 1-380 isoform P63092-2): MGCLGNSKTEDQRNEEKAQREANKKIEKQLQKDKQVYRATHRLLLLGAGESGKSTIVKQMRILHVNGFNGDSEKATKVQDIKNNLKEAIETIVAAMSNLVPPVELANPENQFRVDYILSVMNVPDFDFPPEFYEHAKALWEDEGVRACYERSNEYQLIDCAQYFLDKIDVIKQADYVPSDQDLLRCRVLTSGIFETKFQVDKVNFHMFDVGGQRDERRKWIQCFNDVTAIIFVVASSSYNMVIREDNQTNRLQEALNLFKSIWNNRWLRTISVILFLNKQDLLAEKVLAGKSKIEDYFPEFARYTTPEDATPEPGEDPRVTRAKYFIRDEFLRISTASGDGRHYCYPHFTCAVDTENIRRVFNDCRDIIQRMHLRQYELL
Description: Active state binding cyclic peptide GN13 blocks Gαs-mediated adenylyl cyclase activation. In order to determine whether (Gαs/GppNHp) specific binders inhibit Gαs activity, we assayed the ability of Gαs to activate its downstream effector adenylyl cyclase (AC) (FIG. 17A). We refer to resynthesized active state binding cyclic peptides with a “GN” (Gαs/GppNHp) preceding their ranking number. […] We then evaluated the inhibitory effect of the top hits on Gαs-mediated adenylyl cyclase activation by measuring production of cAMP in a reconstituted Gαs activity assay (FIG. 17A). […] Cyclic peptides dose dependent inhibition (FIG. 17C). […] WT Gαs at a concentration of 8.5 mg/mL (about 190 μM) in 20 mM HEPES 8.0, 150 mM NaCl, 5 mM MgCl2, 1 mM EDTA-Na 8.0 was diluted to 0.5 μM in dilution buffer (1× PBS 7.4, 0.1% BSA, 1 mM EDTA-Na 8.0, 2 mM DTT, 0.1 mM MgCl2) plus 1 mM GppNHp. […] Reaction mixture was further incubated at room temperature for 2 hours and placed on ice for 5 minutes. cAMP production was initiated by addition of […] of ATP stock (1 mM ATP, 1× PBS 7.4, 0.1% BSA). The reaction was carried out at 30° C. for 10 minutes in a PCR machine and stopped by heating at 95° C. for 3 minutes. The cAMP concentrations were measured by the LANCE Ultra cAMP kit. […] The cAMP concentrations were measured by the LANCE Ultra cAMP kit. cAMP concentrations measurement by the LANCE Ultra cAMP kit. […]

- sensitivity of the nucleotide exchange step of Gαi (Gαi): much less sensitive
- inhibition of adenylyl cyclase activation by Gαs WT (GppNHp-bound Gαs): inhibits
SMILES: CC[C@H](C)[C@@H]1NC(=O)[C@H](C)NC(=O)[C@H](Cc2ccc(O)cc2)NC(=O)[C@H](C(C)C)NC(=O)[C@H](CO)NC(=O)[C@H](CCC(=O)O)NC(=O)[C@H](Cc2ccccc2)NC(=O)[C@@H](Cc2ccc(O)cc2)NC(=O)CSC[C@@H](C(=O)NCC(N)=O)NC(=O)[C@H](CC(C)C)NC(=O)[C@H]([C@@H](C)O)NC(=O)CNC(=O)[C@H](Cc2c[nH]c3ccccc23)NC1=O [GN13] ({CH2CO}-[dY]FESVYAIWGTLCG-NH2; thioether N-13)
